Results as given in ChEMBL document CHEMBL1201862, “PubChem BioAssay data set” (2004).
Active and inactive are the calls of the source.

Experiments:
[1] = growth inhibition of PfATP4-mutant resistant parasites – NITD609-resistant line, SYBR Green, dry powder, dose response (AID 1159571); type: functional, cell-based;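 also: parasites synchronized at ring stage by sorbitol before testing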
[2] = P. falciparum Dd2 growth inhibitors, dose response, SYBR Green, cherry-picked samples (AID 1159567); type: functional, cell-based
[3] = toxicity to human HepG2 hepatoma cells – cell-based, plate reader, dry powder samples, cytotoxicity control, dose response (AID 1159569); type: functional;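 also: inhibitor potency with signal falling toward the positive control level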
[4] = Dd2 malaria parasite growth inhibition potency – SYBR Green, dry powder samples, dose response (AID 1159566); type: functional, cell-based;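 also: potency for growth inhibition with lower SYBR green DNA signal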
[5] = growth inhibition of yeast DHODH-expressing 3D7 parasites – SYBR Green, dry powder samples, dose response (AID 1159570); type: functional, cell-based;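 also: parasite growth measured after 72 hours of compound exposure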
[6] = intracellular Trypanosoma cruzi inhibitors in host cells – cell-based, plate reader, cherry-pick samples, set 3, dose response (AID 651818); type: functional;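 also: compounds incubated with infected cells for about four days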
Caspase-6 = molecular target: T1, Caspase-6 (Homo sapiens, UniProt P55212); test: inhibition of CASP6 peptide cleavage – biochemical, VEID-R110 fluorescence, cherry-pick, dose response (AID 720632)
T1 sequence (P55212 whole entry): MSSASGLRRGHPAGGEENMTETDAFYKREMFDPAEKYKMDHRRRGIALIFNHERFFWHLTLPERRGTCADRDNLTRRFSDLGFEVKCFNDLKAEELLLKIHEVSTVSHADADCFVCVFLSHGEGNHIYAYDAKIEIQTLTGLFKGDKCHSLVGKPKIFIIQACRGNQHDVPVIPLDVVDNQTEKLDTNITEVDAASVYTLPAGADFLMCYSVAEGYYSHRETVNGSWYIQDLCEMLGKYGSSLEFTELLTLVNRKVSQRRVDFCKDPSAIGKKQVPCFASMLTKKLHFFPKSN

[7] = molecular target: T2, Carboxy-terminal domain RNA polymerase II polypeptide A small phosphatase 1 (Homo sapiens, UniProt Q9GZU7); test: CTDSP1 inhibitors, concentration-response, biochemical, absorbance readout, ultra-high-throughput screen actives (AID 540297); type: functional
T2 sequence (Q9GZU7 whole entry): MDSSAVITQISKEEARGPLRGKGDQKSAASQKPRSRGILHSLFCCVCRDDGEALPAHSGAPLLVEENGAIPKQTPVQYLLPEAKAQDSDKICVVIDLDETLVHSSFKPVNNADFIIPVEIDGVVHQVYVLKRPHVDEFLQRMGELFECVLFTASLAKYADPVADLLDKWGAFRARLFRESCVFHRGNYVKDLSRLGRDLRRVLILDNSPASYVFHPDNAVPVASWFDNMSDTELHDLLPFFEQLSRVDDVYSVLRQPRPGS

Fatty acid synthase [8] = molecular target: T3, Fatty acid synthase (Homo sapiens, UniProt P49327); test: inhibition of human FAS-TE enzyme activity – biochemical, kinetic fluorescence intensity, dose response (AID 624326); type: functional;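 also: rate of fluorescence rise from hydrolysis of a fluorogenic O-methyl fluorescein ester substrate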
Aminopeptidase N = molecular target: T4, Aminopeptidase N (Plasmodium falciparum FcB1/Columbia, UniProt O96935); test: malaria alanyl aminopeptidase activity blockers – biochemical, fluorogenic H-Leu-NHMec substrate, 1536-well (AID 1445); parameters: species or system Plasmodium falciparum 3D7, 3D7
T4 sequence (O96935 whole entry): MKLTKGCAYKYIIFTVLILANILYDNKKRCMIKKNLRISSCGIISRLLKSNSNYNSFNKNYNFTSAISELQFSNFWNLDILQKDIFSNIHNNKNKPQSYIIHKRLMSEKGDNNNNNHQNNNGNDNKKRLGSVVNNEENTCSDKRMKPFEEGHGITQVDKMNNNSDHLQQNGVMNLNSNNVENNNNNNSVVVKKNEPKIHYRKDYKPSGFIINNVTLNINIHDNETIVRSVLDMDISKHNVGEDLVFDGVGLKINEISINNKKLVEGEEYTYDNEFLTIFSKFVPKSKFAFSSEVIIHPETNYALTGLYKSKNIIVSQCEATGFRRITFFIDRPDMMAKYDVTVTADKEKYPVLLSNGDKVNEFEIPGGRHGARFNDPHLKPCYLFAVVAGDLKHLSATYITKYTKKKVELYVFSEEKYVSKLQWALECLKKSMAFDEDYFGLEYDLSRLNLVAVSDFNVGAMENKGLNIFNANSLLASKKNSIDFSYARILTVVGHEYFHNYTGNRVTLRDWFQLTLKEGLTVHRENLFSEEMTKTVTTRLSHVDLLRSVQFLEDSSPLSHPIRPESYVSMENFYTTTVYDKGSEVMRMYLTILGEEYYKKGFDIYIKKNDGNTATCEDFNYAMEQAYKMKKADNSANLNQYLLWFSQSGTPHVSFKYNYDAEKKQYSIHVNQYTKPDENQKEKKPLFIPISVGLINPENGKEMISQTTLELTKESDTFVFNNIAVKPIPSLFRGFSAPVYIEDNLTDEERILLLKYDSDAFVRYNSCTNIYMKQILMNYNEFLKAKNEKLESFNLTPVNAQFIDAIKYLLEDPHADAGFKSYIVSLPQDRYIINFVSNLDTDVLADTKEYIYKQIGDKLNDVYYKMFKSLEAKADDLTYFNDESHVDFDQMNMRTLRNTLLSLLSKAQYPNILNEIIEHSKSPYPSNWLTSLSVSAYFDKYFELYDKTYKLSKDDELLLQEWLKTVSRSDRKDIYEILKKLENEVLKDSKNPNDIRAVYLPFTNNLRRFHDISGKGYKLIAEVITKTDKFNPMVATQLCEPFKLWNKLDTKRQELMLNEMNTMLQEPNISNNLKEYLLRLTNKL

Fatty acid synthase [9] = molecular target: T3, Fatty acid synthase; test: inhibition of human FAS-TE enzyme activity – biochemical, endpoint fluorescence intensity, uHTS hits, dose response (AID 624327); type: functional;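 also: fluorescence from hydrolysis of an O-methyl fluorescein acyl ester substrate by the enzyme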
Mucolipin-3 = molecular target: T5, Mucolipin-3 (Homo sapiens, UniProt Q8TDD5); test: Dose response cell-based high-throughput screening assay for agonists of the transient receptor potential channel ML3 (TRPML3). [Related pubchem assays: 1526, 1424, 1448 ]; type: functional
T5 sequence (Q8TDD5 whole entry): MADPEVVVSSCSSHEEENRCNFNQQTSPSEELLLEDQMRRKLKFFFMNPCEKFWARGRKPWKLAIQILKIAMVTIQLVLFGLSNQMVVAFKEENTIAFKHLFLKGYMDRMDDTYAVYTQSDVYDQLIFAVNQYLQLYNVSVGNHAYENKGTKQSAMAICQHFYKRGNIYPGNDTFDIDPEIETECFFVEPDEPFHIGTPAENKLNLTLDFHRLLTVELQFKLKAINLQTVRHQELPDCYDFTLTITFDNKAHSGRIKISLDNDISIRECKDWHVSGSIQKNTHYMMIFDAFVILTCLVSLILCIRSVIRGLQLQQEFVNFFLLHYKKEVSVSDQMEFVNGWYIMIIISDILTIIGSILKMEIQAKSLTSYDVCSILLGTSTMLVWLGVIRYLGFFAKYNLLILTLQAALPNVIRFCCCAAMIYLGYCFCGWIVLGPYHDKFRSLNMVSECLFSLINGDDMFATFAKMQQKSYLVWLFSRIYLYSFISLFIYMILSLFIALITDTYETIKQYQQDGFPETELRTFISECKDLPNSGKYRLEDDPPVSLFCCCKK

Ion channel NompC = Ion channel NompC (Danio rerio, UniProt Q7T1G6); test: Fluorescence counterscreen assay for TRPML3 agonists: dose response cell-based high-throughput screening assay to identify agonists of the transient receptor potential channel N1 (TRPN1). [Related pubchem assays: 1526, 1424, 1448 ]; type: functional
[10] = A cytotoxicity screen of small molecule inhibitors of the PhoP region in Salmonella typhi identified in the primary screen. [Related pubchem assays: 1850, 1864, 1985 ]; type: functional
[11] = molecular target: T6, DNA repair and recombination protein RAD54-like (Homo sapiens, UniProt Q92698); test: RAD54 Holliday junction migration blockers – biochemical, fluorescence, cherry-picked samples, dose series, confirmation (AID 651657); type: functional
T6 sequence (Q92698 whole entry): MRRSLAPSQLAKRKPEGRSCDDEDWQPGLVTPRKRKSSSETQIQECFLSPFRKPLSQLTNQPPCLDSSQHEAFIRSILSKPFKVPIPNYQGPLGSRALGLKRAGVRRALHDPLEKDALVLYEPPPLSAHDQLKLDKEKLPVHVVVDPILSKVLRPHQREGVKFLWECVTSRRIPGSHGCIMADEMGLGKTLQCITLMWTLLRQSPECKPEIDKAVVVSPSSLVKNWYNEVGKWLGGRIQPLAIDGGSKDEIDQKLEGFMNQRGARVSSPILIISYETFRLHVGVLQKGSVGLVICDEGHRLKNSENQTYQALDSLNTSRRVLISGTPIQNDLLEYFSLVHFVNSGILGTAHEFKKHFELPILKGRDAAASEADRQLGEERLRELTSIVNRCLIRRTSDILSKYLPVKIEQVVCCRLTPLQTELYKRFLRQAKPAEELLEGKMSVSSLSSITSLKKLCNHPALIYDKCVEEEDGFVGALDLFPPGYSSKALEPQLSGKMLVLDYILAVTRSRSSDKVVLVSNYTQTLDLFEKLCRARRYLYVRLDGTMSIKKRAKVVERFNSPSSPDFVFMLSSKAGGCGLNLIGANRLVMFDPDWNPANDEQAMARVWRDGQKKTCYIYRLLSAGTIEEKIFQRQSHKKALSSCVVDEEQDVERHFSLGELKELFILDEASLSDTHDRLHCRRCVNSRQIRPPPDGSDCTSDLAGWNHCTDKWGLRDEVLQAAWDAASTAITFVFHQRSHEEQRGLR

cells [12] = type: functional, cell-based
cells [13] = type: functional, cell-based; remark: listed apart in the source
Beta-galactosidase = Beta-galactosidase (Escherichia coli, UniProt Q8VNN2); test: detection-enzyme interference by beta-gal modulators – biochemical, E. coli enzyme, set 3, artefact control for CCR6 antagonist project, dose response (AID 504712); type: functional
[14] = molecular target: T7, Probable nicotinate-nucleotide adenylyltransferase (Staphylococcus aureus (strain N315), UniProt P65502); type: functional, Staphylococcus aureus subsp. aureus N315;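 as to IC50 Mean: confirmatory dose-response retesting of NadD inhibitor hits first found in an ultra-high-throughput screen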
[15] = molecular target: T7, Probable nicotinate-nucleotide adenylyltransferase; type: functional, Staphylococcus aureus subsp. aureus N315; conditions: read-out: IC50_Mean
HEK293 [16] = test: cells; type: functional, cell-based; conditions: Homo sapiens
HEK293 [17] = test: cells; type: functional, cell-based; conditions: Homo sapiens; remark: listed apart in the source
HEK293 [18] = test: inhibition of NOD1-driven NF-kB reporter – cell-based, luminescence, uHTS, primary screen (AID 1578); type: functional; conditions: Homo sapiens
HEK293 [19] = test: NOD2 signaling inhibitors in MDP-stimulated cells, cell-based, uHTS, luminescence (AID 2001); type: functional; conditions: Homo sapiens

T3 sequence (P49327 whole entry): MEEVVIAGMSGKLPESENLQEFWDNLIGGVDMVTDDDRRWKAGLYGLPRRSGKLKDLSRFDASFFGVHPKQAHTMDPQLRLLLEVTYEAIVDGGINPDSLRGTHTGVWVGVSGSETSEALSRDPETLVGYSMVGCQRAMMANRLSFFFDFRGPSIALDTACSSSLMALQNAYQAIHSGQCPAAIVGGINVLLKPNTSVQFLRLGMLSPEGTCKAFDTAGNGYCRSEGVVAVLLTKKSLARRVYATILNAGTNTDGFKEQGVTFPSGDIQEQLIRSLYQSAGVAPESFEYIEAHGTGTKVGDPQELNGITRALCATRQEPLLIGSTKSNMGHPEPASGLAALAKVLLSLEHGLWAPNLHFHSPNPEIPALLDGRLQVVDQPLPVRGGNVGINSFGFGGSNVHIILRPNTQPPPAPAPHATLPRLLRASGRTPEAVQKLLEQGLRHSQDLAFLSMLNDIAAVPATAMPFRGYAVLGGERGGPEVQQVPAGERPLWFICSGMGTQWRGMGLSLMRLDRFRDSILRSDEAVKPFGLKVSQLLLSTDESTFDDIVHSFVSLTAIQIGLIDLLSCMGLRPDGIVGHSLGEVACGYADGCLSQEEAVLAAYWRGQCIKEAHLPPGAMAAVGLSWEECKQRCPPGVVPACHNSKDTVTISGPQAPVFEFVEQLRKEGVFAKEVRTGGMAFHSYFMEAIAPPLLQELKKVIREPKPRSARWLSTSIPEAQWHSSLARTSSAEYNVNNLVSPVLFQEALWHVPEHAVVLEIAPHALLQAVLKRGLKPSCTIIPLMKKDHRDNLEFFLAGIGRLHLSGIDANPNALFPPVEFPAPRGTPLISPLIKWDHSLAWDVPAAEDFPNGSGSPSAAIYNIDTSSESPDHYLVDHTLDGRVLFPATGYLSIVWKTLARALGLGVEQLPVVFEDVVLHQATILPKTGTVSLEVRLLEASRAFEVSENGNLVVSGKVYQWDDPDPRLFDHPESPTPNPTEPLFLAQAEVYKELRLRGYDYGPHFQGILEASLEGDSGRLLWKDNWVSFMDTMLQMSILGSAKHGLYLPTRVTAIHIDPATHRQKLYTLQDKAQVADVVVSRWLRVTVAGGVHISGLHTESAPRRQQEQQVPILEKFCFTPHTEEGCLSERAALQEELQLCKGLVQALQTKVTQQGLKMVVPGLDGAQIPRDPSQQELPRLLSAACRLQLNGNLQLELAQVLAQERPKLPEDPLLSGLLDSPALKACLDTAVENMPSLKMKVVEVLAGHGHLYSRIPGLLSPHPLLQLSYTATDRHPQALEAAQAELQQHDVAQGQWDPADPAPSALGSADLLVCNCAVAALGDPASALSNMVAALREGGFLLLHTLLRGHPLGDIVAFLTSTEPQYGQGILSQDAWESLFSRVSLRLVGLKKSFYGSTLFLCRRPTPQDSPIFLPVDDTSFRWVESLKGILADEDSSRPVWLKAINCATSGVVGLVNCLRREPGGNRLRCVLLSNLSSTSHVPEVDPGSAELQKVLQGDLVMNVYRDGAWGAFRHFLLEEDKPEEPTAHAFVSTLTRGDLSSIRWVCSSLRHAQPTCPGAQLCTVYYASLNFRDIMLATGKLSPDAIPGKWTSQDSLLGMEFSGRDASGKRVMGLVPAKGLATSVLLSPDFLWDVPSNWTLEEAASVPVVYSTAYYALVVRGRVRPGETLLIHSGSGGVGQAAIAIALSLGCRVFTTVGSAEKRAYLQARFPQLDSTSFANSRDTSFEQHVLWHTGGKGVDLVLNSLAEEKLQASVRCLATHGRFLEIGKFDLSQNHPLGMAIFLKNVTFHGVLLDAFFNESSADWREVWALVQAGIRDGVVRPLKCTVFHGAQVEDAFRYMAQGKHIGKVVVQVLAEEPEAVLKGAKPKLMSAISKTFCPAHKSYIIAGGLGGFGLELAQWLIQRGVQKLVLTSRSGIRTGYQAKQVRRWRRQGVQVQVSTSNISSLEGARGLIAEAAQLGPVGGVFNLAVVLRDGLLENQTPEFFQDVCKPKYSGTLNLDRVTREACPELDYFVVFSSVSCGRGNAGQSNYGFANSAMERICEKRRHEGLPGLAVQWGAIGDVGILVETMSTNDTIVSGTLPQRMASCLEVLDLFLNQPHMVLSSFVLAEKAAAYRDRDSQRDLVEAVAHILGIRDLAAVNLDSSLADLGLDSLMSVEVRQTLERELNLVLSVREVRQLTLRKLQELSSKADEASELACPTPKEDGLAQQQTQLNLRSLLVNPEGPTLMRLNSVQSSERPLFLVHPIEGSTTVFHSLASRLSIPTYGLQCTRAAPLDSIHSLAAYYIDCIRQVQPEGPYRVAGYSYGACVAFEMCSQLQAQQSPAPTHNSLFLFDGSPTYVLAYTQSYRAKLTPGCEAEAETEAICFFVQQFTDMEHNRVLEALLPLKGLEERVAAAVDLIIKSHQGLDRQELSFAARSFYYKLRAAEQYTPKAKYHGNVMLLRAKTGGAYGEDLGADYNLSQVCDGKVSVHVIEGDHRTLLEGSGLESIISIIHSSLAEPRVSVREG
Ion channel NompC, sequence (Q7T1G6 whole entry): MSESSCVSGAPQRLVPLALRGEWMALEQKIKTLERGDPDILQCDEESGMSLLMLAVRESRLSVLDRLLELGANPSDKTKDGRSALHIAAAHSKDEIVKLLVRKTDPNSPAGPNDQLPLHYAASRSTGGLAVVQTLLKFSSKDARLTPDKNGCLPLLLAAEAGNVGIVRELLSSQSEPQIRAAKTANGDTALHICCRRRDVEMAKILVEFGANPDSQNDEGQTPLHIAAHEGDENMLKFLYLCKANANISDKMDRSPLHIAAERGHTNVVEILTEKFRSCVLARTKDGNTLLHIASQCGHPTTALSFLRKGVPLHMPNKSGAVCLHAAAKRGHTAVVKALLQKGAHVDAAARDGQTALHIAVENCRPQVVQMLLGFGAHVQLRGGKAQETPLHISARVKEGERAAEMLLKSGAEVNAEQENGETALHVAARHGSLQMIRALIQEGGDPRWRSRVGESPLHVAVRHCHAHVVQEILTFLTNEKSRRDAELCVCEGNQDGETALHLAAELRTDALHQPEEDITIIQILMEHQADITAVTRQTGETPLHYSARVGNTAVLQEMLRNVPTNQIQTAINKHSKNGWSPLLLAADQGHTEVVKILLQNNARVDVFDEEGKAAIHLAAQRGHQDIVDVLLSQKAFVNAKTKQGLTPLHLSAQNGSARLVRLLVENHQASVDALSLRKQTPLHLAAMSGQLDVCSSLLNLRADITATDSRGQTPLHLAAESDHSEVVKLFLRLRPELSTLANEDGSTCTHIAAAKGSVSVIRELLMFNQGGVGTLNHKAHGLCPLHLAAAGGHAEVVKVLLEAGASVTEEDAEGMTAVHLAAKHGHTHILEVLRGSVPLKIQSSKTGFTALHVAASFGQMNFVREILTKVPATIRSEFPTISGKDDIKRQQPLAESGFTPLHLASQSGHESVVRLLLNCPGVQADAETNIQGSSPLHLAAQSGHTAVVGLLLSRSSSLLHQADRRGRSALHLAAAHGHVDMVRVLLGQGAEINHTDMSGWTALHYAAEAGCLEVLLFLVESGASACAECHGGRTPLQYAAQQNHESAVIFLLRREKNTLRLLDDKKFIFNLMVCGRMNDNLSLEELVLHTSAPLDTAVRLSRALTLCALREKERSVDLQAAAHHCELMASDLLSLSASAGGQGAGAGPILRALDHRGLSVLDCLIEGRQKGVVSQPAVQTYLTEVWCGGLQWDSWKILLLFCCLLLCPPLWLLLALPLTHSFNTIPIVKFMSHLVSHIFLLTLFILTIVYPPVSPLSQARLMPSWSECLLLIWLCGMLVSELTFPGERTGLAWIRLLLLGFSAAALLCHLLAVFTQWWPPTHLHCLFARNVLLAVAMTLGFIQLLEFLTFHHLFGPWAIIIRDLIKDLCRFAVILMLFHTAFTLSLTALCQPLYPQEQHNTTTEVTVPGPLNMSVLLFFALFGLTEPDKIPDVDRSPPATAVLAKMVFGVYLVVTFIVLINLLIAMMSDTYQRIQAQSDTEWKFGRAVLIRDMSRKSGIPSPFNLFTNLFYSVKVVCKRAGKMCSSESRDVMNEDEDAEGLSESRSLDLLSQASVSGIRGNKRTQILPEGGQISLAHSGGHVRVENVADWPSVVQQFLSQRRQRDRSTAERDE
T7 sequence (P65502 whole entry): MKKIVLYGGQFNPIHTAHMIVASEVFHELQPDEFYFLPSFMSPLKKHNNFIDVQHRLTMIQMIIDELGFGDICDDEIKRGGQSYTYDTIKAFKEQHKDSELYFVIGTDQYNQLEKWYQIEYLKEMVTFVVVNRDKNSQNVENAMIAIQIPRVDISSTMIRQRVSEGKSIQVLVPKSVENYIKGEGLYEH

Question: For C[C@@H]1CN([C@H](C)CO)C(=O)c2cccc(NC(=O)CCCCCC(=O)Nc3ccccc3N)c2O[C@@H]1CN(C)S(=O)(=O)c1ccccc1, which AC50 [1] is on record?
Answer: 0.549 µM (active)

Question: And the AC50 [2]?
Answer: 0.989 µM (active)

Question: What about the AC50 [3] of the same molecule?
Answer: 70.7 µM (active)

Question: What about the AC50 [4] of the same molecule?
Answer: 0.573 µM (active)

Question: What about the AC50 [5] of the same molecule?
Answer: 0.507 µM (active)

Question: What about the AC50 [6] of the same molecule?
Answer: 3.26 µM (active)

Question: Which results are given for Nc1cc([N+](=O)[O-])ccc1N1C(=O)CCCC1=O?
Answer: AC50 (Caspase-6): 18.3 µM (active); IC50 [7]: 10.8 µM (active)

Question: With O=C(O)c1cc(-c2ccc(/C=N/NC(=S)Nc3ccccc3)o2)ccc1Cl as the molecule, how does the IC50 (Fatty acid synthase [8]) read?
Answer: 16.1 µM (active)

Question: What about the IC50 (Aminopeptidase N) of the same molecule?
Answer: 31.2 µM (active)

Question: And the IC50 [7]?
Answer: 12.1 µM (active)

Question: What about the IC50 (Fatty acid synthase [9]) of the same molecule?
Answer: 15.8 µM (active)

Question: What does the source list for CC1CCCC(C)N1C(=O)CN1CCN(c2nc(-c3ccc(F)cc3)cs2)CC1 (stereo not drawn)?
Answer: EC50 (Mucolipin-3): 27.4 µM (not active); EC50 (Ion channel NompC): > 29.9 µM (not active)

Question: For COc1ccc(C2=NN3C(C2)c2ccccc2OC3c2cccs2)cc1 (stereo not drawn), which EC50 [10] is on record?
Answer: > 50 µM (active)

Question: Which results are given for O=C(CN1CCCC1)Nc1ccc(-c2nc3cc(NC(=O)CN4CCCC4)ccc3o2)cc1?
Answer: AC50 [11]: 12.5 µM (active); EC50 (cells [12]): > 350 µM (not active); EC50 [10]: > 50 µM (active); EC50 (cells [13]): > 350 µM (not active)

Question: With C[C@H](CO)N1C[C@H](C)[C@@H](CN(C)Cc2cccc(C(=O)Nc3ccccc3N)c2)OCc2ccccc2-c2c(n(C)c3ccccc23)C1=O as the molecule, how does the AC50 [1] read?
Answer: 0.949 µM (active)

Question: What about the AC50 [2] of the same molecule?
Answer: 1.21 µM (active)

Question: And the AC50 [3]?
Answer: 72.9 µM (active)

Question: And the AC50 [4]?
Answer: 1.12 µM (active)

Question: And the AC50 [5]?
Answer: 0.944 µM (active)

Question: For Cc1c([N+](=O)[O-])cc(N2C(=O)C=CC2=O)cc1[N+](=O)[O-], which IC50 (Beta-galactosidase) is on record?
Answer: > 66.6 µM (inactive)

Question: What about the IC50 [14] of the same molecule?
Answer: 3.77 µM (active)

Question: And the IC50 [15]?
Answer: 6.33 µM (active)

Question: For CCOc1ccc(NC(=O)c2ccccc2NS(=O)(=O)c2ccc(F)cc2)c([N+](=O)[O-])c1, which EC50 (Mucolipin-3) is on record?
Answer: 5.29 µM (active)

Question: And the IC50 (HEK293 [16])?
Answer: > 20 µM (inactive)

Question: And the IC50 (HEK293 [17])?
Answer: 19 µM (active)

Question: What about the EC50 (HEK293 [18]) of the same molecule?
Answer: 4.21 µM (active)

Question: What about the IC50 (HEK293 [19]) of the same molecule?
Answer: 11.8 µM (inactive)

Question: What about the EC50 (Ion channel NompC) of the same molecule?
Answer: > 29.9 µM (not active)
